The values that follow come from ChEMBL document CHEMBL5331074, “Design and synthesis of new adamantyl derivatives as promising antiproliferative agents” (Eur J Med Chem, 2023).

In data set [1] the test system is K562. As to the kind of experiment: Induction of apoptosis in human K562 cells assessed as fold increase in caspase 3/7 activity at 0.64 uM (reference value: 1.03 +/- 0.02). It is filed as functional.
The nature of data set [2]: Selectivity index, ratio of IC50 for cytotoxicity against human F180 cells to IC50 for cytotoxicity against human UACC-257 cells.
The nature of data set [3]: Selectivity index, ratio of IC50 for cytotoxicity against human F180 cells to IC50 for cytotoxicity against human SK-MEL-5 cells.
The subject of data set [4] is K562. As to the kind of experiment: Induction of necrosis in human K562 cells assessed as LDH release at 0.32 uM (reference value: 0.20+/- 0.02%). It is filed as functional.
In data set [5] the target is T1, Carbonic anhydrase 2 (Homo sapiens, UniProt P00918). Put plainly: Inhibition of Carbonic anhydrase 2 (unknown origin) using p-nitrophenyl acetate as substrate preincubated for 10 mins followed by substrate addition and measured after 30 mins by microplate reader method.
In the next data set the test system is IGROV-1. Put plainly: Cytotoxicity against human IGROV-1 cells assessed as cell growth inhibition. It is filed as functional, cell-based.
The next data set concerns CAKI-1. Put plainly: Cytotoxicity against human CAKI-1 cells assessed as cell growth inhibition. It is filed as functional, cell-based.
For data set [6], the system named is K562. Put plainly: Induction of necrosis in human K562 cells assessed as LDH release at 0.64 uM (reference value: 0.20+/- 0.02%). It is filed as functional.
For data set [7], the target named is T2, Carbonic anhydrase 12 (Homo sapiens, UniProt O43570). Put plainly: Inhibition of Carbonic anhydrase 12 (unknown origin) at 100 uM using p-nitrophenyl acetate as substrate preincubated for 10 mins followed by substrate addition and measured after 30 mins by microplate reader method relative to control. To be noted: time 40.0 min.
T2 sequence (O43570 whole entry): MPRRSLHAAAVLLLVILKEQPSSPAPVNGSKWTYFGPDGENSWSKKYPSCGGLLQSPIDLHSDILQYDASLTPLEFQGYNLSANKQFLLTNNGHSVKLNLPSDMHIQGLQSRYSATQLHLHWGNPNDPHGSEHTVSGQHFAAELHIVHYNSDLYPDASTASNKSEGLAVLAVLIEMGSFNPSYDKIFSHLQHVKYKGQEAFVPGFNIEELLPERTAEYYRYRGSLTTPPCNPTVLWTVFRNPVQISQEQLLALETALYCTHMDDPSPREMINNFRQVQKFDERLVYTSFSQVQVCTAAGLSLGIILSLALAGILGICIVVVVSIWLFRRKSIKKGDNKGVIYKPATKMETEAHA
A short description of data set [8]: Selectivity index, ratio of IC50 for cytotoxicity against human hTERT-HME1 cells to IC50 for cytotoxicity against human Hs-578T cells.
For the next data set, the system named is PC-3. As to the kind of experiment: Cytotoxicity against human PC-3 cells assessed as cell growth inhibition. It is filed as functional, cell-based.
Data set [9] deals with K562. Put plainly: Induction of apoptosis in human K562 cells assessed as fold increase in caspase 3/7 activity at 0.32 uM (reference value: 1.03 +/- 0.02). It is filed as functional.
Data set [10] deals with Panel NCI-60 (60 carcinoma cell lines). Put plainly: Cytotoxicity against human Panel NCI-60 (60 carcinoma cell lines) assessed as mean growth inhibition. It is filed as functional.
Data set [11] concerns K562. As to the kind of experiment: Induction of apoptosis in human K562 cells assessed as fold increase in caspase 3/7 activity at 0.58 uM (reference value: 1.03 +/- 0.02). It is filed as functional.
Data set [12] deals with T1, Carbonic anhydrase 2. As to the kind of experiment: Inhibition of Carbonic anhydrase 2 (unknown origin) at 100 uM using p-nitrophenyl acetate as substrate preincubated for 10 mins followed by substrate addition and measured after 30 mins by microplate reader method relative to control. To be noted: time 40.0 min.
The nature of data set [13]: Selectivity index, ratio of IC50 for cytotoxicity against human F180 cells to IC50 for cytotoxicity against human SK-MEL-28 cells.
Data set [14] deals with K562. Put plainly: Induction of necrosis in human K562 cells assessed as LDH release at 1.16 uM (reference value: 0.20+/- 0.02%). It is filed as functional.
A further data set concerns MOLT-4. Put plainly: Cytotoxicity against human MOLT-4 cells assessed as cell growth inhibition. It is filed as functional, cell-based.
Data set [15] can be described thus: Selectivity index, ratio of IC50 for cytotoxicity against human hTERT-HME1 cells to IC50 for cytotoxicity against human MCF7 cells. Particulars: hTERT-HME1 cells and MCF7 cells, read-out: Ratio IC50. It is filed as toxicity, cell-based.
For data set [16], the system named is K562. Put plainly: Induction of necrosis in human K562 cells assessed as LDH release at 0.58 uM (reference value: 0.20+/- 0.02%). It is filed as functional.
Data set [17] is described as follows: Selectivity index, ratio of IC50 for cytotoxicity against human F180 cells to IC50 for cytotoxicity against human UACC-62 cells.
Data set [18] has as its target T2, Carbonic anhydrase 12. Put plainly: Inhibition of Carbonic anhydrase 12 (unknown origin) using p-nitrophenyl acetate as substrate preincubated for 10 mins followed by substrate addition and measured after 30 mins by microplate reader method.
The subject of data set [19] is K562. Put plainly: Induction of apoptosis in human K562 cells assessed as fold increase in caspase 3/7 activity at 1.16 uM (reference value: 1.03 +/- 0.02). It is filed as functional.
A further data set relates to CCRF-CEM. Put plainly: Cytotoxicity against human CCRF-CEM cells assessed as cell growth inhibition. It is filed as functional, cell-based.
Another data set relates to OVCAR-3. Put plainly: Cytotoxicity against human OVCAR-3 cells assessed as cell growth inhibition. It is filed as functional, cell-based.

pIC50: −log10 of the molar value.

On to `O=C(Nc1ccc(OS(=O)(=O)c2ccccc2)cc1)C12CC3CC(CC(C3)C1)C2`, for which the “fold change (FC)” value turned out to be 3.7 in the data set with K562 [1] and 2.05 in the data set on K562 [9]. Besides, the entries for the “Ratio IC50” value in [2], in data set [3] and in [8] were 3.7, 3.12 and 6.8, respectively. The values for the Activity in the data set on K562 [4] and in the data set on K562 [6] were 0.5% and 2.3%, respectively. Also, the pIC50 on Carbonic anhydrase 2 [5] was 6.06; in the data set with IGROV-1, below 4.00; in the data set with CAKI-1, 5.15; in the data set on PC-3, 5.54. For the same molecule, the inhibition at Carbonic anhydrase 12 [7] was determined as 18.1%. Besides, the “inhibition (INH)” value in data set [10] was 44.5%.

`O=C(Nc1ccc(OS(=O)(=O)c2ccc(F)cc2)cc1)C12CC3CC(CC(C3)C1)C2`: the entries for the “fold change (FC)” value in the data set with K562 [11] and in the data set on K562 [19] were 1.89 and 2.72, respectively. This molecule gave an inhibition against Carbonic anhydrase 2 [12] of 39.6%. The “Ratio IC50” value in data set [13] was found to be 1.7; in data set [17] it was 15.9. The pIC50 is 4.98 with IGROV-1; 5.30 in the data set with MOLT-4; 6.17 against Carbonic anhydrase 12 [18]; 6.31 with PC-3; 5.43 with CCRF-CEM; 5.22 in the data set on OVCAR-3. Further, the Activity in the data set on K562 [14] is 3.4%; in the data set on K562 [16], 1.8%. Further, in [15], the selectivity ratio is 84.7.
